Reference: patent US4426382A, “4-Amino-6,7-dimethoxy-2-piperazinylquinazoline derivatives, their preparation and use” (Sankyo Company Limited, priority 1980, dated 1984)
Where a name gives a salt, the structure may show the parent alone.

Experiments:
[1] = background; cited from earlier work
[2] = system: spontaneously hypertensive rats; assay: antihypertensive activity: blood pressure after oral administration to conscious spontaneously hypertensive rats; type: in vivo; conditions: male spontaneously hypertensive rats
Experimental: The animals used in this test were 15 week old male spontaneously hypertensive rats. 3-5 rats were used to test each concentration of each compound. Each animal was treated as follows. […] A polyethylene cannula was then inserted into the abdominal aorta by the method of Weeks and Jones [J. R. Weeks and J. A. Jones, Proc. Soc. […] The other end of the cannula, leading out of the body, was fixed to the neck. One week after the operation, when the animal had recovered from post-operative invasion, this end of the cannula was connected to an apparatus to measure the blood pressure and heart beat directly without the need for any further anesthesia or restraint. The haemomanometer used was an improved type of that originated by Laffan et al. [P. J. Laffan, A. Peterson, S. W. Hitch and C.
The compound under test was suspended at the desired concentration in a 0.3% w/v aqueous solution of carboxymethylcellulose and administered orally in a volume of 2 ml/kg body weight. […] After administration of the sample, the blood pressure and heart beat of each animal were measured for 24 hours at 15 minute intervals.
For purposes of comparison, the same experiment was carried out with various concentrations of the known hypotensive agent, prazosin, in the form of its hydrochloride.
Δmax =Maximum change in blood pressure (mm/Hg) after administration of the compound under test;
Tmax =Time (in hours) after administration of the compound under test required for the blood pressure to obtain a maximum change;
T0.5 max =Time (in hours) after administration of the compound under test for the blood pressure to return to one-half of its maximum value.

SMILES | antihypertensive activity (in words) [1] | disappearance of hypotensive effect (in words) [1] | time to maximum hypotensive effect (in words) [1] | T0.5 max, time after administration for the blood pressure to return to one-half of its maximum value ([2]; dose 3 mg/kg oral) | Tmax, time after administration required for the blood pressure to obtain a maximum change ([2]; dose 3 mg/kg oral) | Δmax, maximum change in blood pressure after administration ([2]; dose 3 mg/kg oral) | T0.5 max, time after administration for the blood pressure to return to one-half of its maximum value ([2]; dose 30 mg/kg oral) | Tmax, time after administration required for the blood pressure to obtain a maximum change ([2]; dose 30 mg/kg oral) | Δmax, maximum change in blood pressure after administration ([2]; dose 30 mg/kg oral)
COc1cc2nc(N3CCN(C(=O)c4ccco4)CC3)nc(N)c2cc1OC [prazosin] | very useful antihypertensive activity | the effect tends also to diappear quickly | maximum hypotensive effect tends to be achieved very quickly |  |  |  |  |  | 
COc1cc2nc(N3CCN(C(=O)Cc4ccccc4)CC3)nc(N)c2cc1OC [28 hydrochloride hydrate] |  |  |  | 9 h | 60 min | -30 mmHg | 10 h | 240 min | -50 mmHg
C=C(C)C(=O)N1CCN(c2nc(N)c3cc(OC)c(OC)cc3n2)CC1 [Compound No. 2, 4-Amino-6,7-dimethoxy-2-[4-(2-methylacryloyl)-1-piperazinyl]quinazoline] |  |  |  | 3.5 h | 45 min | -25 mmHg | 9 h | 30 min | -35 mmHg
C=CCCC(=O)N1CCN(c2nc(N)c3cc(OC)c(OC)cc3n2)CC1 [Compound No. 6, 4-Amino-6,7-dimethoxy-2-[4-(4-pentenoyl)-1-piperazinyl]quinazoline] |  |  |  | 8 h | 30 min | -40 mmHg | 13 h | 30 min | -65 mmHg
COc1cc2nc(N3CCN(C(=O)COc4ccccc4)CC3)nc(N)c2cc1OC [27 hydrochloride hydrate] |  |  |  | 8 h | 300 min | -20 mmHg | 8 h | 300 min | -40 mmHg
